# Data reported in patent US9642851B2, “Indolinone derivative as tyrosine kinase inhibitor” (KBP Biosciences Co., Ltd., priority 2012, dated 2017).
# Structures can show the parent of a compound that is named as a salt.
# Columns and labels:
# FGFR3 = target: T1, FGFR3 (Homo sapiens, UniProt P22607); experiment: In vitro enzymology inhibitory activity (Caliper mobility shift kinase assay); format: biochemical; conditions: reaction 1 hour at 28° C., FAM-labelled peptide and ATP
# T1 construct: purchased Carna
# T1 sequence (P22607 23-806): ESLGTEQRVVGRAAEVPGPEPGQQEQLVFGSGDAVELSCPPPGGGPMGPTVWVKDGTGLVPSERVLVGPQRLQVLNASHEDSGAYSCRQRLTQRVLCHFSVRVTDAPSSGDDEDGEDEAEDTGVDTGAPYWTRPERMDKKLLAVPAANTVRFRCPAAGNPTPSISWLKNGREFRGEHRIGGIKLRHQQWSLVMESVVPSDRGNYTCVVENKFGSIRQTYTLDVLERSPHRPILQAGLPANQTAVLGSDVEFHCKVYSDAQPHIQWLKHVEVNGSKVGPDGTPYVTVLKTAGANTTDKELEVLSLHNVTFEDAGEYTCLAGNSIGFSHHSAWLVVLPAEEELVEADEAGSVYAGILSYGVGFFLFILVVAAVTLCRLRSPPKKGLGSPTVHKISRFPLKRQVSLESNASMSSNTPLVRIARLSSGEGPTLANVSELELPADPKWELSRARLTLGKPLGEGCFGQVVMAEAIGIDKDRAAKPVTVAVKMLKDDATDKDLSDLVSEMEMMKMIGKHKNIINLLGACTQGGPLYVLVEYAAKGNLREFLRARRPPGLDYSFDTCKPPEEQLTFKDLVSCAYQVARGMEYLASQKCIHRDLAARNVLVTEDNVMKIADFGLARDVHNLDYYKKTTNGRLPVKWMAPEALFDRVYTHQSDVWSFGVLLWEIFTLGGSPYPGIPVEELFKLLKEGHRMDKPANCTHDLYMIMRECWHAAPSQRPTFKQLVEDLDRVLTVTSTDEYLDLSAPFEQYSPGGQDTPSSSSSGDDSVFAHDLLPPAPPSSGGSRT
# Method: (§1) • (1) Preparation of agents and compounds • (1) 1-fold kinase buffer without MnCl2 (50 mM HEPES, pH=7.5, 0.0015% Brij-35, 10 mM MgCl2, 2 mM DTT) • (2) 1-fold kinase buffer with MnCl2 (50 mM HEPES, pH=7.5, 0.0015% Brij-35, 10 mM MgCl2, 10 mM MnCl2, 2 mM DTT); • (3) Termination solution (100 mM HEPES, pH=7.5, 0.015% Brij-35, 0.2% Coating Reagent #3, 50 mM EDTA); • (4) 2.5-fold kinase solution (the VEGFR2, FGFR1, FGFR3, PDGFRβ kinases were added to the 1-fold kinase buffer respectively to prepare the corresponding 2.5-fold kinase solutions); • (5) 2.5-fold substrate solution: FAM-labelled peptide and ATP were added to the 1-fold kinase buffer to prepare a peptide solution; • (6) 4-fold dilution of the compound solution: the compound was accurately weighed, and dissolved in DMSO. The mixture was mixed sufficiently and evenly to prepare a 10 mM solution. Then the solution was diluted with DMSO to 500 μM, and 4-fold serial dilutions were done at 10 concentrations with a highest concentration of 50μM.
# (§2) The calculated inhibition ratio (%)=(max. conversion−sample conversion)/(max. conversion−min. conversion)×100
# (§3) The curve fitting was done with the software Xlfit to obtain the IC50 value.
# PDGFRβ = target: T2, PDGFRβ (Homo sapiens, UniProt P09619); experiment: as above; format: biochemical; conditions: reaction 5 hour at 28° C., FAM-labelled peptide and ATP
# T2 construct: purchased BPS
# T2 sequence (P09619 33-1106): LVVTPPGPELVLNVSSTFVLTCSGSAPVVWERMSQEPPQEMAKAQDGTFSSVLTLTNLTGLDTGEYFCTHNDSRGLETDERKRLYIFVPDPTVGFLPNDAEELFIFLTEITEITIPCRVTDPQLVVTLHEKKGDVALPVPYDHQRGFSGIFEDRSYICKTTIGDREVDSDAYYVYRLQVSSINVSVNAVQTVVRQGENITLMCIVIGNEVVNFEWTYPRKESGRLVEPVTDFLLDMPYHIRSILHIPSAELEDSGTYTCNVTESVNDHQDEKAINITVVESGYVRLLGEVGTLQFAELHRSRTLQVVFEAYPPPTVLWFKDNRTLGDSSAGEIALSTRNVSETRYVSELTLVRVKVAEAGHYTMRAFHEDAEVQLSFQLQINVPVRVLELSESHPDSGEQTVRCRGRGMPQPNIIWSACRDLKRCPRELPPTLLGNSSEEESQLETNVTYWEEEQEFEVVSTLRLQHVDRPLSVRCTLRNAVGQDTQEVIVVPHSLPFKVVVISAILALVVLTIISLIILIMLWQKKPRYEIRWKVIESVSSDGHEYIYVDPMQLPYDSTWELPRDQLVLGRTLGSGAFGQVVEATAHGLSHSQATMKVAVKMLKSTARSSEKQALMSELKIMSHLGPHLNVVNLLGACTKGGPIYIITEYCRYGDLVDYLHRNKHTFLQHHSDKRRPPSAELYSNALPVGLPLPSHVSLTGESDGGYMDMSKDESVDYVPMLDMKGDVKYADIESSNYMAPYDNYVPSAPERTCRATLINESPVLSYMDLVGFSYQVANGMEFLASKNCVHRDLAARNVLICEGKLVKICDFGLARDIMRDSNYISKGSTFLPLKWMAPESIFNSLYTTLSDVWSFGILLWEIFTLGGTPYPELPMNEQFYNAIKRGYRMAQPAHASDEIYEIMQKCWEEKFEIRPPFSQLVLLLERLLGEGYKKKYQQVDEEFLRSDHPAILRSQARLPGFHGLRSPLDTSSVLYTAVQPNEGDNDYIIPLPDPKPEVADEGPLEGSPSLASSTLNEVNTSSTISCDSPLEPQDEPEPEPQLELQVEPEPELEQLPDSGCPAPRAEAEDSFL
# Method: as §1, §2, §3
# HUVEC cells = experiment: In vitro cellular inhibitory activity, h-VEGF-A stimulated HUVEC proliferation; format: cell-based; conditions: Homo sapiens, h-VEGF-A 10 ng/ml, incubated for 89 hours, absorbance at 490 nm, read-out: ED50 for the HUVEC in vitro cells
# Method: (§4) (1) Thawing cells and Passing cells.
# (§5) The 3T3 cells were resuspended in a culture medium containing 10% fetal bovine serum, wherein the cell concentration was 5×10^4/ml. The cell suspension was added to a 96-well plate with 100 μL per well, and incubated overnight; the HUVEC cells were resuspended in a culture medium containing 10% heat-inactivated fetal bovine serum, wherein the cell concentration was 7.5×10^4/ml. The cell suspension was added to a 96-well plate with 100 μL per well. • (3) Treating with drugs: the compounds were diluted to different concentrations, and 60 μLh-PDGF-BB (3T3 cells) and 40 ng/ml h-VEGF-A (HUVEC cells) were added and incubated for 1 hour. • (4) 100 μL of a solution containing the compound and h-PDGF-BB (h-VEGF-A, for the HUVEC cells) was added to a cell culture plate, wherein the final concentration of h-PDGF-BB was 10 ng/ml, the final concentration of h-VEGF-A was 10 ng/ml, and the final concentration for the compounds were 10, 3.3333, 1.1111, 0.3704, 0.1235, 0.0412, 0.0137, 0.0046, and 0.0015 μM. The plate was incubated for 40 hours, and the HUVEC cells were incubated for 89 hours. To each well was added 20 μL Promega Substrate, and the plate was incubated at 37° C. for 7.5 hours, and the HUVEC cells were incubated for 11.5 hours. Then the plate was placed in a microplate reader to read the absorbance at 490 nm. • (5) Data processing
# (§6) The curve of the compound concentration vs. Net OD was plotted, wherein Net OD=Compound OD−min. OD. ED50 was calculated according to the following equation: Conc. ED50(x)=(y−b)/a, y=Calculated Net OD for IC50, a=slope, b=intercept.
# 3T3 cells = experiment: In vitro cellular inhibitory activity, h-PDGF-BB stimulated 3T3 proliferation; format: cell-based; conditions: Mus musculus, NIH3T3; h-PDGF-BB 10 ng/ml, incubated for 40 hours, absorbance at 490 nm; read-out: ED50 for the 3T3 in vitro cells
# Method: as §4, §5, §6
# hERG potassium channel = hERG potassium channel (Homo sapiens, UniProt Q12809); experiment: Inhibitory effect on hERG potassium channel with the patch clamp method
# hERG potassium channel, sequence (Q12809 whole entry): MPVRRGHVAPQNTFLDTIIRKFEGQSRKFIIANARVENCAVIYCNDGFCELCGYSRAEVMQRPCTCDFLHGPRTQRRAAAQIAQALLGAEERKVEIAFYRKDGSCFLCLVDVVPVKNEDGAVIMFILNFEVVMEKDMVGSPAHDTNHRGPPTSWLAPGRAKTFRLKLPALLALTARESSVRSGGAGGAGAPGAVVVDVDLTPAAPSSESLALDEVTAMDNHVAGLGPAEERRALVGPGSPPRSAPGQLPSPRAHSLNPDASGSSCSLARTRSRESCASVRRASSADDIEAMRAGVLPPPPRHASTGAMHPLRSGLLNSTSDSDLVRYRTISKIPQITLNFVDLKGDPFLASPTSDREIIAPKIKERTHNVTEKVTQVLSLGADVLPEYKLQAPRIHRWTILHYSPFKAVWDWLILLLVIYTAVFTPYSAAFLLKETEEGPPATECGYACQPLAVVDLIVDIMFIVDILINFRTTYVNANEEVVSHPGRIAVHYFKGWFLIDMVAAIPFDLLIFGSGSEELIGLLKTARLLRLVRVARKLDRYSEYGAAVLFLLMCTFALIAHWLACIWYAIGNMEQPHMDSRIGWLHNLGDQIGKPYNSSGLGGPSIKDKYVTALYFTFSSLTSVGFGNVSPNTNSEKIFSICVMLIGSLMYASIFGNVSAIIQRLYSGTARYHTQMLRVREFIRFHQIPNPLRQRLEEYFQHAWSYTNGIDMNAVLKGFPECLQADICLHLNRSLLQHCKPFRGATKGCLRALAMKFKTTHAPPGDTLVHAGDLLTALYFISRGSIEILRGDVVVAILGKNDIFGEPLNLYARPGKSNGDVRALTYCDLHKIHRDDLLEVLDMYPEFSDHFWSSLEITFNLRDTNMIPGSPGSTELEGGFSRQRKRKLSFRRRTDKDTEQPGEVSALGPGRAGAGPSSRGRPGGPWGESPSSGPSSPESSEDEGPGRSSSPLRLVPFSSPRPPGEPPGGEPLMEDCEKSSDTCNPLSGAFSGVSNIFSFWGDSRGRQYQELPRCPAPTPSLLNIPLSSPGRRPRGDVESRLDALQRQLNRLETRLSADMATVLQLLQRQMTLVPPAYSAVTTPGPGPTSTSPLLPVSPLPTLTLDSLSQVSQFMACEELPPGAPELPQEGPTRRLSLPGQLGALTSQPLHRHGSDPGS
# Method: 1. Preparations of the Solutions and the Compounds
# Extracellular fluid (mM): N-2-hydroxyethylpiperazine-N′-2-ethanesulfonic acid (HEPES) 10, NaCl 145, KCl 4, CaCl2 2, MgCl2 1, Glucose 10, adjusted with 1N sodium hydroxide to pH=7.4; the osmotic pressure was adjusted to 290-300 mOsm; filtered and preserved at 4° C.
# Intracellular solution (mM): KCl 120, KOH 31.25, CaCl2 5.374, MgCl2 1.75, Ethylene glycol-bis(β-aminoethyl ether)-N,N,N′,N′-tetraacetic acid (EGTA) 10, HEPES 10, Na2-ATP 4, adjusted with 1N potassium hydroxide to pH=7.2; the osmotic pressure was adjusted to 280-290 mOsm; filtered and preserved at −20° C.
# Before the experiments, the above stock solutions were diluted with DMSO to the levels that were 333 or 1000 times higher than the experiment concentrations, and then diluted by 333 or 1000 folds with the extracellular fluid to the desired concentrations. The final concentration of DMSO in the extracellular fluid was 0.3% or 0.1%.
# 2. Electrophysiological experiment. The hERG current was recorded with whole cell patch clamp technique. A cell suspension was added to a 35 mm petri dish, and placed on the object stage of an inverted microscope. After the adherence of cells, the perfusion with the extracellular fluid was done in a perfusion rate of 1-2 ml/min. […] After establishing a whole-cell record, the holding potential was kept at −80 mV. In the voltage stimulation, the depolarization was made at the potential of +60 mV. Then, the repolarization was made at the potential of −50 mV and the hERG tail current was recorded. All of the recordings were conducted after the currents became stable. The extracellular perfusion administration started from the lower concentration, and the administration at each concentration was conducted for 5-10 mines until the current became stable and then the administration at the next concentration was conducted. 3. The Experiment Included the Following Aspects:
# The hERG current was recoded on the CHO-K1 cell line stably expressing the hERG channel with the manual patch clamp technology; the inhibition ratio at each concentration was calculated according to the hERG tail current; each of the compounds was measured at five concentrations to deduce the IC50 value; two cells were measured at each concentration; and one positive control drug was used.
# 4. Data Collection and Processing
# The stimulation and the signal collection were accomplished through A/D-D/A digital-analog conversions with Digidata 1440 (Molecular Devices) and pCLAMP software (Version 10.2, Molecular Devices); the signal was amplified with a patch clamp amplifier (Multiclamp 700B, Molecular Devices), and filtered at 1 KHz. The data were further analyzed and subjected to the curve fitting with Clampfit (Version 10.2, Molecular Devices) and Prism. The data were expressed as mean value±standard deviation. The IC50 value was obtained by the fitting based on the Logistic equation:
# [formula] • y: the inhibitory percent; max: 100%; min: 0%; [drug]: the concentration of the tested substance; nH: the slope rate; IC50: the half maximal inhibitory concentration of the tested substance.
# FGFR1 = target: T3, FGFR1 (Homo sapiens, UniProt P11362); experiment: In vitro enzymology inhibitory activity (Caliper mobility shift kinase assay); format: biochemical; conditions: reaction 1 hour at 28° C., FAM-labelled peptide and ATP
# T3 construct: purchased Carna
# T3 sequence (P11362 22-822): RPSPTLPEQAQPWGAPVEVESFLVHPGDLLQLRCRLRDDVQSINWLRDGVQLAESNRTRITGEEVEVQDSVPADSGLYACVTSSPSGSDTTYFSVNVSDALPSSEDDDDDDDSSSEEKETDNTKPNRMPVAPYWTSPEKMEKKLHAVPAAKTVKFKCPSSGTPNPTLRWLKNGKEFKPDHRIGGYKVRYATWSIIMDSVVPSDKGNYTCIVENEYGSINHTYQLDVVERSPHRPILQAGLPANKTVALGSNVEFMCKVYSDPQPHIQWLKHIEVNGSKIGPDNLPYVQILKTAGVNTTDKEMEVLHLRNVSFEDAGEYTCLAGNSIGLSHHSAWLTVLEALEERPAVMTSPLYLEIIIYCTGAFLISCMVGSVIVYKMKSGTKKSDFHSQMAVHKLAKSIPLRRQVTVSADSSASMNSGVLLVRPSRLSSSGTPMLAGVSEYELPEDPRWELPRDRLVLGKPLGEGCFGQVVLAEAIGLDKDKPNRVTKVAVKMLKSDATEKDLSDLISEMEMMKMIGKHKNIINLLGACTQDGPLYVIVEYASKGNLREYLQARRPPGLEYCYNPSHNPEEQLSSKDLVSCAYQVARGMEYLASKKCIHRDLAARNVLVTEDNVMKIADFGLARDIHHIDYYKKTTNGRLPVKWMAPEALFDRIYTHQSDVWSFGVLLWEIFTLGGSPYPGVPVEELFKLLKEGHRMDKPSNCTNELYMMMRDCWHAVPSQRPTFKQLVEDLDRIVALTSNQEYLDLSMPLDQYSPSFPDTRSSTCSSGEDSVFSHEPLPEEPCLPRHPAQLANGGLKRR
# Method: as §1, §2, §3
SMILES,EC50 (HUVEC cells),IC50 (hERG potassium channel),further results
"COC(=O)c1ccc2c(c1)NC(=O)/C2=C(\Nc1ccc2c(c1)CCN2C(=O)CN(C)C)c1ccccc1 [Compound 2 hydrochloride, methyl(Z)-3-((1-(2-(dimethylamino)acetyl)indolin-5-ylamino)(phenyl)methylene)-2oxoindoline-6-carboxylate hydrochloride]",–,–,IC50 (FGFR3): 280 nM; IC50 (PDGFRβ): 15 nM
COC(=O)c1ccc2c(c1)NC(=O)/C2=C(\Nc1ccc2c(c1)CCN2C(=O)CN1CCN(C)CC1)c1ccc(F)cc1 [Compound 3],180 to 260 nM,–,EC50 (3T3 cells): 1300 to 1900 nM
CCOC(=O)c1ccc2c(c1)NC(=O)/C2=C(\Nc1ccc2c(c1)CCN2C(=O)CN1CCN(C)CC1)c1ccccc1 [Compound 4],120 to 170 nM,–,–
COC(=O)c1ccc2c(c1)NC(=O)/C2=C(\Nc1ccc2c(c1)CCN2C(=O)CC1CCN(C)CC1)c1ccccc1 [Compound 5],100 to 150 nM,–,EC50 (3T3 cells): 820 to 1240 nM
COC(=O)c1ccc2c(c1)NC(=O)/C2=C(\Nc1ccc2c(c1)CCN2C(=O)CCC(=O)N(C)C)c1ccccc1 [Compound 6 hydrochloride],190 to 280 nM,–,–
COC(=O)c1ccc2c(c1)NC(=O)/C2=C(\Nc1ccc2c(c1)CCN2C(=O)CN1CCOCC1)c1ccccc1 [Compound 7 hydrochloride],–,–,EC50 (3T3 cells): 50 to 70 nM
COC(=O)c1ccc2c(c1)NC(=O)/C2=C(\Nc1ccc2c(c1)CCN2C(=O)CN1CCOCC1)c1ccccc1 [Compound 7],70 to 100 nM,> 30000 nM,–
COC(=O)c1ccc2c(c1)NC(=O)/C2=C(\Nc1ccc2c(c1)CCN2C(=O)CN1CCC(O)CC1)c1ccccc1 [Compound 8],70 to 100 nM,–,–
"COC(=O)c1ccc2c(c1)NC(=O)/C2=C(\Nc1ccc2c(c1)CCN2C(=O)CN1CCOCC1)c1ccc(F)cc1 [Compound 9, methyl(Z)-3-((4-fluorophenyl)(1-(2-morpholinylacetyl)indolin-5-ylamino)methylene)-2-oxoindoline-6-carboxylate]",–,> 30000 nM,–
"CCOC(=O)c1ccc2c(c1)NC(=O)/C2=C(\Nc1ccc2c(c1)CCN2C(=O)CN1CCOCC1)c1ccccc1 [Compound 10, ethyl(Z)-3-((1-(2-morpholinylacetyl)indolin-5-ylamino)(phenyl)methylene)-2-oxoindoline-6-carboxylate]",–,> 30000 nM,–
"COC(=O)c1ccc2c(c1)NC(=O)/C2=C(\Nc1ccc2c(c1)CCN2C(=O)CN1CC(C)OC(C)C1)c1ccccc1 (stereo not drawn) [Compound 11 hydrochloride, methyl(Z)-3-((1-(2-(2,6-dimethylmorpholine)acetyl)indolin-5-ylamino)(phenyl)methylene)-2-oxoindoline-6-carboxylate]",50 to 80 nM,–,–
"COC(=O)c1ccc2c(c1)NC(=O)/C2=C(\Nc1ccc2c(c1)CCN2C(=O)CN1CC(C)OC(C)C1)c1ccccc1 (stereo not drawn) [Compound 11, methyl(Z)-3-((1-(2-(2,6-dimethylmorpholine)acetyl)indolin-5-ylamino)(phenyl)methylene)-2-oxoindoline-6-carboxylate]",–,> 30000 nM,–
"COC(=O)c1ccc2c(c1)NC(=O)/C2=C(\Nc1ccc2c(c1)CCN2C(=O)CN1CCCC1=O)c1ccccc1 [Compound 12 hydrochloride, methyl(Z)-3-((1-(2-(2-pyrrolidon-1-yl)acetyl)indolin-5-ylamino)(phenyl)methylene)-2-oxoindoline-6-carboxylate]",20 to 30 nM,–,IC50 (FGFR3): 1720 nM; IC50 (PDGFRβ): 19 nM
"COC(=O)c1ccc2c(c1)NC(=O)/C2=C(\Nc1ccc2c(c1)CCN2C(=O)CN1CCCC1=O)c1ccccc1 [Compound 12, methyl(Z)-3-((1-(2-(2-pyrrolidon-1-yl)acetyl)indolin-5-ylamino)(phenyl)methylene)-2-oxoindoline-6-carboxylate]",–,> 30000 nM,–
"COC(=O)c1ccc2c(c1)NC(=O)/C2=C(\Nc1ccc2c(c1)CCN2C(=O)Cn1cncn1)c1ccccc1 [Compound 13 hydrochloride, methyl(Z)-3-((1-(2-(1H-1,2,4-triazol-1-yl)acetyl)indolin-5-ylamino)(phenyl)methylene)-2-oxoindoline-6-carboxylate]",60 to 90 nM,–,IC50 (FGFR1): 700 nM; IC50 (FGFR3): 540 nM; IC50 (PDGFRβ): 14 nM
"COC(=O)c1ccc2c(c1)NC(=O)/C2=C(\Nc1ccc2c(c1)CCN2C(=O)Cn1cncn1)c1ccccc1 [Compound 13, methyl(Z)-3-((1-(2-(1H-1,2,4-triazol-1-yl)acetyl)indolin-5-ylamino)(phenyl)methylene)-2-oxoindoline-6-carboxylate]",–,> 30000 nM,–
"COC(=O)c1ccc2c(c1)NC(=O)/C2=C(\Nc1ccc2c(c1)CCN2C(=O)Cn1cccn1)c1ccccc1 [Compound 14 hydrochloride, methyl(Z)-3-((1-(2-(1H-pyrazol-1-yl)acetyl)indolin-5-ylamino)(phenyl)methylene)-2-oxoindoline-6-carboxylate]",70 to 100 nM,–,IC50 (FGFR3): 4020 nM; IC50 (PDGFRβ): 24 nM
"COC(=O)c1ccc2c(c1)NC(=O)/C2=C(\Nc1ccc2c(c1)CCN2C(=O)Cn1cccn1)c1ccccc1 [Compound 14, methyl(Z)-3-((1-(2-(1H-pyrazol-1-yl)acetyl)indolin-5-ylamino)(phenyl)methylene)-2-oxoindoline-6-carboxylate]",–,> 30000 nM,–
"COC(=O)c1ccc2c(c1)NC(=O)/C2=C(\Nc1ccc(N(C)C(=O)CN2CCN(C)CC2)cc1)c1ccccc1 [Intedanib (BIBF-1120), Intedanib, reference compound]",–,4900 nM,–
